# ChEMBL document CHEMBL1157058, “3D-QSAR studies on quinazoline antifolate thymidylate synthase inhibitors by CoMFA and CoMSIA models” (Eur J Med Chem, 2010)
# Molecular target: Thymidylate synthase (Homo sapiens, UniProt P04818)
# Test: Inhibition of thymidylate synthase
# Sequence of Thymidylate synthase (P04818 whole entry): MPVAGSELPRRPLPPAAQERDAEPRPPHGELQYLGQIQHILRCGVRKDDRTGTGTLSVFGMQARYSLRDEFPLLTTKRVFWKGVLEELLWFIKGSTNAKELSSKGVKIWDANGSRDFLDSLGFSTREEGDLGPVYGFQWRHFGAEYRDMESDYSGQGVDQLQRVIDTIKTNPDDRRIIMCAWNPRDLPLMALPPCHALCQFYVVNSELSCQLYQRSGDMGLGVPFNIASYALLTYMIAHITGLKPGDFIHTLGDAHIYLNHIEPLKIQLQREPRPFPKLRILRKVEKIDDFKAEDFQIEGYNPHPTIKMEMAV
row,SMILES,IC50 [nM]
1,Cc1nc2ccc(CN(CCF)c3ccc(C(=O)N[C@@H](CCC(=O)O)C(=O)O)s3)cc2c(=O)[nH]1,550
2,CC(=O)CN(Cc1ccc2nc(C)[nH]c(=O)c2c1)c1ccc(C(=O)N[C@@H](CCC(=O)O)C(=O)O)cc1,25100
3,C#CCN(Cc1ccc2nc(C)[nH]c(=O)c2c1)c1ccc(C(=O)N[C@@H](CCC(=O)O)C(=O)O)c(C)c1,501
4,Cc1nc2ccc(CN(CCO)c3cnc(C(=O)N[C@@H](CCC(=O)O)C(=O)O)s3)cc2c(=O)[nH]1,417
5,C#CCN(Cc1ccc2nc(C)[nH]c(=O)c2c1)c1ccc(C(=O)N[C@@H](CCC(=O)O)C(=O)O)c(N)c1,288
6,C=CCN(Cc1ccc2nc(C)[nH]c(=O)c2c1)c1ccc(C(=O)N[C@@H](CCC(=O)O)C(=O)O)s1,1660
7,Cc1nc2ccc(CNc3ccc(C(=O)N[C@@H](CCC(=O)O)C(=O)O)s3)cc2c(=O)[nH]1,24500
8,C=CCN(Cc1ccc2nc(C)[nH]c(=O)c2c1)c1ccc(C(=O)N[C@@H](CCC(=O)O)C(=O)O)c(F)c1,75.9
9,Cc1nc2ccc(CN(CC#N)c3ccc(C(=O)N[C@@H](CCC(=O)O)C(=O)O)c(F)c3)cc2c(=O)[nH]1,170
10,Cc1nc2ccc(CNc3ccc(C(=O)N[C@@H](CCC(=O)O)C(=O)O)cc3F)cc2c(=O)[nH]1,9330
11,Cc1nc2ccc(CN(CCCO)c3cnc(C(=O)N[C@@H](CCC(=O)O)C(=O)O)s3)cc2c(=O)[nH]1,1740
12,CCN(Cc1ccc2nc(C)[nH]c(=O)c2c1)c1ccc(C(=O)N[C@@H](CCC(=O)O)C(=O)O)c(Cl)c1,120
13,Cc1nc2ccc(CN(C)c3ccc(C(=O)N[C@@H](CCC(=O)O)C(=O)O)cn3)cc2c(=O)[nH]1,4270
14,C#CCN(Cc1ccc2nc(C)[nH]c(=O)c2c1)c1ccc(C(=O)N[C@@H](CCC(=O)O)C(=O)O)s1,437
15,Cc1nc2ccc(CN(C)c3ccc(C(=O)N[C@@H](CCC(=O)O)C(=O)O)cc3F)cc2c(=O)[nH]1,1150
16,CCN(Cc1ccc2nc(C)[nH]c(=O)c2c1)c1ccc(C(=O)N[C@@H](CCC(=O)O)C(=O)O)c(N)c1,309
17,C#CCN(Cc1ccc2nc(C)[nH]c(=O)c2c1)c1ccc(C(=O)N[C@@H](CCC(=O)O)C(=O)O)c([N+](=O)[O-])c1,129
18,Cc1nc2ccc(CN(CCO)c3ccc(C(=O)N[C@@H](CCC(=O)O)C(=O)O)c(F)c3)cc2c(=O)[nH]1,77.6
19,Cc1nc2ccc(CN(CCBr)c3ccc(C(=O)N[C@@H](CCC(=O)O)C(=O)O)cc3)cc2c(=O)[nH]1,1290
20,CCN(Cc1ccc2nc(C)[nH]c(=O)c2c1)c1ccc(C(=O)N[C@@H](CCC(=O)O)C(=O)O)cc1F,676

row,SMILES,IC50 [nM]
1,C#CCN(Cc1ccc2nc(C)[nH]c(=O)c2c1)c1ccc(C(=O)N[C@@H](CCC(=O)O)C(=O)O)nc1,39.8
2,C#CCN(Cc1ccc2nc(C)[nH]c(=O)c2c1)c1ccc(C(=O)N[C@@H](CCC(=O)O)C(=O)O)c(O)c1,89.1
3,C#CCN(Cc1ccc2nc(C)[nH]c(=O)c2c1)c1cnc(C(=O)N[C@@H](CCC(=O)O)C(=O)O)s1,229
4,CCN(Cc1ccc2nc(C)[nH]c(=O)c2c1)c1ccc(C(=O)N[C@@H](CCC(=O)O)C(=O)O)nc1,151
5,CN(Cc1ccc2nc(CF)[nH]c(=O)c2c1)c1ccc(C(=O)N[C@@H](CCC(=O)O)C(=O)O)cc1,2880
6,Cc1nc2ccc(CNc3ccc(C(=O)N[C@@H](CCC(=O)O)C(=O)O)c(F)c3)cc2c(=O)[nH]1,3800
7,Cc1nc2ccc(CN(CC#N)c3ccc(C(=O)N[C@@H](CCC(=O)O)C(=O)O)s3)cc2c(=O)[nH]1,3090
8,Cc1nc2ccc(CN(CCF)c3ccc(C(=O)N[C@@H](CCC(=O)O)C(=O)O)c(F)c3)cc2c(=O)[nH]1,42.7
9,CCN(Cc1ccc2nc(C)[nH]c(=O)c2c1)c1ccc(C(=O)N[C@@H](CCC(=O)O)C(=O)O)c([N+](=O)[O-])c1,145
10,Cc1nc2ccc(CNc3ccc(C(=O)N[C@@H](CCC(=O)O)C(=O)O)cc3)cc2c(=O)[nH]1,4470
11,Cc1nc2ccc(CN(C)c3cnc(C(=O)N[C@@H](CCC(=O)O)C(=O)O)nc3)cc2c(=O)[nH]1,2340
12,Cc1nc2ccc(CN(C)c3cnc(C(=O)N[C@@H](CCC(=O)O)C(=O)O)s3)cc2c(=O)[nH]1,417
13,Cc1nc2ccc(CN(C)c3ccc(C(=O)N[C@@H](CCC(=O)O)C(=O)O)cc3)cc2c(=O)[nH]1,302
14,CCN(Cc1ccc2nc(C)[nH]c(=O)c2c1)c1nnc(C(=O)N[C@@H](CCC(=O)O)C(=O)O)s1,933
15,C=CCN(Cc1ccc2nc(C)[nH]c(=O)c2c1)c1cnc(C(=O)N[C@@H](CCC(=O)O)C(=O)O)s1,1070
16,Cc1nc2ccc(CN(CCCO)c3ccc(C(=O)N[C@@H](CCC(=O)O)C(=O)O)c(F)c3)cc2c(=O)[nH]1,589
17,Cc1nc2ccc(CN(CCF)c3cnc(C(=O)N[C@@H](CCC(=O)O)C(=O)O)s3)cc2c(=O)[nH]1,191
18,Cc1nc2ccc(CN(CCF)c3ccc(C(=O)N[C@@H](CCC(=O)O)C(=O)O)cc3)cc2c(=O)[nH]1,240
19,C#CCN(Cc1ccc2nc(C)[nH]c(=O)c2c1)c1ccc(C(=O)N[C@@H](CCC(=O)O)C(=O)O)c(OC)c1,67.6
20,C#CCN(Cc1ccc2nc(C)[nH]c(=O)c2c1)c1ccc(C(=O)N[C@@H](CCC(=O)O)C(=O)O)cc1F,1450

# Continued, values first:
row,IC50 [nM],SMILES
1,977,Cc1nc2ccc(CN(CCCO)c3ccc(C(=O)N[C@@H](CCC(=O)O)C(=O)O)cc3F)cc2c(=O)[nH]1
2,759,C=CCN(Cc1ccc2nc(C)[nH]c(=O)c2c1)c1ccc(C(=O)N[C@@H](CCC(=O)O)C(=O)O)nc1
3,229,CCN(Cc1ccc2nc(C)[nH]c(=O)c2c1)c1cnc(C(=O)N[C@@H](CCC(=O)O)C(=O)O)s1
4,3550,Cc1nc2ccc(CN(CCO)c3ccc(C(=O)N[C@@H](CCC(=O)O)C(=O)O)cc3F)cc2c(=O)[nH]1
5,479,C#CCN(Cc1ccc2nc(C)[nH]c(=O)c2c1)c1ccc(C(=O)N[C@@H](CCC(=O)O)C(=O)O)c(C(F)(F)F)c1
6,1740,Cc1nc2ccc(CN(CCF)c3ccc(C(=O)N[C@@H](CCC(=O)O)C(=O)O)cc3F)cc2c(=O)[nH]1
7,57.5,C#CCN(Cc1ccc2nc[nH]c(=O)c2c1)c1ccc(C(=O)N[C@@H](CCC(=O)O)C(=O)O)c(F)c1
8,20,C#CCN(Cc1ccc2nc(C)[nH]c(=O)c2c1)c1ccc(C(=O)N[C@@H](CCC(=O)O)C(=O)O)c(F)c1
9,851,Cc1nc2ccc(CN(C)c3ccc(C(=O)N[C@@H](CCC(=O)O)C(=O)O)c(N)c3)cc2c(=O)[nH]1
10,575,CCN(Cc1ccc2nc(C)[nH]c(=O)c2c1)c1ccc(C(=O)N[C@@H](CCC(=O)O)C(=O)O)s1
11,11700,Cc1nc2ccc(CN(CCN)c3ccc(C(=O)N[C@@H](CCC(=O)O)C(=O)O)c(F)c3)cc2c(=O)[nH]1
12,1780,Cc1nc2ccc(CN(CCS)c3ccc(C(=O)N[C@@H](CCC(=O)O)C(=O)O)cc3)cc2c(=O)[nH]1
13,1200,Cc1nc2ccc(CN(CCO)c3ccc(C(=O)N[C@@H](CCC(=O)O)C(=O)O)s3)cc2c(=O)[nH]1
14,537,Cc1nc2ccc(CN(CCCO)c3ccc(C(=O)N[C@@H](CCC(=O)O)C(=O)O)cc3)cc2c(=O)[nH]1
15,1350,Cc1nc2ccc(CN(CC(N)=O)c3ccc(C(=O)N[C@@H](CCC(=O)O)C(=O)O)c(F)c3)cc2c(=O)[nH]1
16,479,C=CCN(Cc1ccc2nc(C)[nH]c(=O)c2c1)c1ccc(C(=O)N[C@@H](CCC(=O)O)C(=O)O)cc1
17,8.91,C#CCN(Cc1ccc2nc(N)[nH]c(=O)c2c1)c1ccc(C(=O)N[C@@H](CCC(=O)O)C(=O)O)c(F)c1
18,20000,CCc1nc2ccc(CNc3ccc(C(=O)N[C@@H](CCC(=O)O)C(=O)O)cc3)cc2c(=O)[nH]1

row,IC50 [nM],SMILES
1,316,CCN(Cc1ccc2nc(C)[nH]c(=O)c2c1)c1ccc(C(=O)N[C@@H](CCC(=O)O)C(=O)O)c(C)c1
2,36.3,C#CCN(Cc1ccc2nc(OC)[nH]c(=O)c2c1)c1ccc(C(=O)N[C@@H](CCC(=O)O)C(=O)O)c(F)c1
3,170,CCN(Cc1ccc2nc(C)[nH]c(=O)c2c1)c1ccc(C(=O)N[C@@H](CCC(=O)O)C(=O)O)cc1
4,7080,Cc1nc2ccc(CNc3cnc(C(=O)N[C@@H](CCC(=O)O)C(=O)O)s3)cc2c(=O)[nH]1
5,1860,CCCN(Cc1ccc2nc(C)[nH]c(=O)c2c1)c1ccc(C(=O)N[C@@H](CCC(=O)O)C(=O)O)s1
6,12900,COCCCN(Cc1ccc2nc(C)[nH]c(=O)c2c1)c1ccc(C(=O)N[C@@H](CCC(=O)O)C(=O)O)cc1
7,933,Cc1nc2ccc(CN(C)c3ccc(C(=O)N[C@@H](CCC(=O)O)C(=O)O)c(C)c3)cc2c(=O)[nH]1
8,74.1,C#CCN(Cc1ccc2nc(C)[nH]c(=O)c2c1)c1ccc(C(=O)N[C@@H](CCC(=O)O)C(=O)O)c(Cl)c1
9,347,Cc1nc2ccc(CN(C)c3ccc(C(=O)N[C@@H](CCC(=O)O)C(=O)O)nc3)cc2c(=O)[nH]1
10,5130,C=CCN(Cc1ccc2nc(C)[nH]c(=O)c2c1)c1ccc(C(=O)N[C@@H](CCC(=O)O)C(=O)O)cc1F
11,44.7,CCN(Cc1ccc2nc(C)[nH]c(=O)c2c1)c1ccc(C(=O)N[C@@H](CCC(=O)O)C(=O)O)c(F)c1
12,3390,Cc1nc2ccc(CN(CCCO)c3ccc(C(=O)N[C@@H](CCC(=O)O)C(=O)O)s3)cc2c(=O)[nH]1
13,191,CCN(Cc1ccc2nc(C)[nH]c(=O)c2c1)c1ccc(C(=O)N[C@@H](CCC(=O)O)C(=O)O)c(OC)c1
14,158,Cc1nc2ccc(CN(CCF)c3ccc(C(=O)N[C@@H](CCC(=O)O)C(=O)O)nc3)cc2c(=O)[nH]1
15,120,Cc1nc2ccc(CN(C)c3ccc(C(=O)N[C@@H](CCC(=O)O)C(=O)O)c(F)c3)cc2c(=O)[nH]1
16,501,Cc1nc2ccc(CN(CCO)c3ccc(C(=O)N[C@@H](CCC(=O)O)C(=O)O)cc3)cc2c(=O)[nH]1
17,759,CCN(Cc1ccc2nc(C)[nH]c(=O)c2c1)c1ncc(C(=O)N[C@@H](CCC(=O)O)C(=O)O)s1
18,16200,COCCN(Cc1ccc2nc(C)[nH]c(=O)c2c1)c1ccc(C(=O)N[C@@H](CCC(=O)O)C(=O)O)cc1
